Results as given in patent US20250314636A1, “METHOD OF PREPARING AND EXPANDING A POPULATION OF IMMUNE CELLS FOR CANCER THERAPY, POTENCY ASSAY FOR TUMOR RECOGNITION, BIOLOGICAL VACCINE PREPARATION AND EPITOPETARGET FOR ANTIBODIES” (FUNDAÇÃO D. ANNA DE SOMMER CHAMPALIMAUD E DR. CARLOS MONTEZ …, priority 2022, published 2025).

Tests used:
TIL = test: Peptide recognition assay in TIL (IFN-γ ELISA / IL-17 in supernatant, 7 days); type: cell-based, human; parameters: IFN-γ production, TIL: unit not given here; conditions: for IFN-γ production, TIL: 10e4 TIL/well co-cultured with the peptide for 7 days, supernatant tested; for Pancreatic TIL D1599 IFN-y / Pancreatic TILD1599 IL 17: Pancreatic TIL D1599
Description: (§1) Peptides from tumor-associated antigens (TAAs), listed in Table 5 were placed at 1 ug/well in duplicates using anti-CD3 at 30 ng/mL as well as PHA at 5 μg/mL as positive controls.
(§2) The differences in TIL versus PBMCs can also be defined by peptide reactivity. 10e^4 TIL or 10e^4 PBMC/well were co-cultured with the peptides listed in Table 11 below for 7 days and the supernatants were tested for IFN-γ production.

PBMCs = test: Peptide recognition assay in PBMCs (IFN-γ in supernatant, 7 days); type: cell-based, human; conditions: 10e4 PBMC/well co-cultured with the peptide for 7 days, supernatant tested
Description: as §1, §2

| Sequence | IFN-γ production, TIL (TIL) | IFN-γ production, PBMCs (PBMCs) | Pancreatic TIL D1599 IFN-y (TIL) [pg/mL] | Pancreatic TILD1599 IL 17 (TIL) [pg/mL] |
| --- | --- | --- | --- | --- |
| ALACWGVRGSLLSEA | 0 | 0 |  |  |
| ALACWGVRGSLLSEA [Mesothelin MPF-12] |  |  | 0 | 0 |
| DILDTAGLEEYSAMR | 0 | 0 |  |  |
| DILDTAGLEEYSAMR [KRAS_Q61L] |  |  | 24 | 0 |
| ELNNALQNL | 6 | 0 |  |  |
| ELNNALQNL [ESAT6, reference compound] |  |  | 0 | 0 |
| FVAESAEVLLPRLVS | 0 | 0 |  |  |
| FVAESAEVLLPRLVS [Mesothelin MPF-14] |  |  | 0 | 0 |
| GIPFIETSAKTRQRVED [Kras_P14 (A146 WT)] |  |  | 0 | 0 |
| GIPFIETSTKTRQRVED | 85 | 0 |  |  |
| GIPFIETSTKTRQRVED [Kras_P15 (A146T)] |  |  | 0 | 0 |
| HRLSEPPEDLDALPL | 0 | 0 |  |  |
| HRLSEPPEDLDALPL [Mesothelin MPF-8] |  |  | 0 | 0 |
| IPFIETSVKTRQRVE [KRAS_A146V] |  |  | 5 | 0 |
| KLVVVGAGDVGKSALTI | 0 | 0 |  |  |
| KLVVVGAGDVGKSALTI [Kras_P9 (G13D)] |  |  | 0 | 3 |
| KLVVVGAGGVGKSALTI | 0 | 0 |  |  |
| KLVVVGAGGVGKSALTI [Kras_P8 (G13 WT)] |  |  | 0 | 108 |
| KLVVVGAVGVGKSAL | 0 | 0 |  |  |
| KLVVVGAVGVGKSAL [KRAS_G12F] |  |  | 36 | 0 |
| LAFQPPISNHPAPEY | 0 | 0 |  |  |
| LAFQPPISNHPAPEY [SMAD4 [D1 private peptide]] |  |  | 0 | 0 |

| Sequence | IFN-γ production, TIL (TIL) | IFN-γ production, PBMCs (PBMCs) | Pancreatic TIL D1599 IFN-y (TIL) [pg/mL] | Pancreatic TILD1599 IL 17 (TIL) [pg/mL] |
| --- | --- | --- | --- | --- |
| LDILDTAGHEEYSAMRD | 0 | 0 |  |  |
| LDILDTAGHEEYSAMRD [Kras_P12 (Q61H)] |  |  | 0 | 4 |
| LDILDTAGKEEYSAMRD | 0 | 0 |  |  |
| LDILDTAGKEEYSAMRD [Kras_P11 (Q61K)] |  |  | 0 | 0 |
| LDILDTAGQEEYSAMRD | 0 | 0 |  |  |
| LDILDTAGQEEYSAMRD [Kras_P10 (Q61 WT)] |  |  | 0 | 0 |
| LDILDTAGREEYSAMRD | 150 | 0 |  |  |
| LDILDTAGREEYSAMRD [Kras_P13 (Q61R)] |  |  | 0 | 0 |
| LDVLYPKARLAFQNM | 0 | 0 |  |  |
| LDVLYPKARLAFQNM [Mesothelin GPI P14] |  |  | 0 | 11 |
| LLPRGAPERQRLLPA | 0 | 0 |  |  |
| LLPRGAPERQRLLPA [Mesothelin MPF-11] |  |  | 0 | 0 |
| LQGGIPNGYLVLDLS | 0 | 0 |  |  |
| LQGGIPNGYLVLDLS [Mesothelin GPI P40 (596-610)] |  |  | 0 | 0 |
| LVVVGAGAVGKSALT | 0 | 0 |  |  |
| LVVVGAGAVGKSALT [KRAS_G13A] |  |  | 19 | 0 |
| LVVVGAGCVGKSALT | 0 | 0 |  |  |
| LVVVGAGCVGKSALT [KRAS_G13C] |  |  | 26 | 0 |
| LVVVGAGRVGKSALT | 0 | 0 |  |  |
| LVVVGAGRVGKSALT [KRAS_G13R] |  |  | 29 | 0 |
| LVVVGAGSVGKSALT | 0 | 0 |  |  |
| LVVVGAGSVGKSALT [KRAS_G13S] |  |  | 24 | 0 |

| Sequence | IFN-γ production, TIL (TIL) | IFN-γ production, PBMCs (PBMCs) | Pancreatic TIL D1599 IFN-y (TIL) [pg/mL] | Pancreatic TILD1599 IL 17 (TIL) [pg/mL] |
| --- | --- | --- | --- | --- |
| LVVVGAGVVGKSALT | 0 | 0 |  |  |
| LVVVGAGVVGKSALT [KRAS_G13V] |  |  | 10 | 0 |
| LVVVGAVGVGKSALT | 0 | 0 |  |  |
| LVVVGAVGVGKSALT [KRAS fitted for HLA-DQB1*06:02] |  |  | 0 | 0 |
| MALPTARPLLGSCGT | 0 | 0 |  |  |
| MALPTARPLLGSCGT [Mesothelin MPF-1] |  |  | 0 | 0 |
| MQEALSGTPCLLGPG | 0 | 0 |  |  |
| MQEALSGTPCLLGPG [Mesothelin GPI P40 (601-605)] |  |  | 0 | 120 |
| PMVLVGNNCDLPSRT | 0 | 0 |  |  |
| PMVLVGNNCDLPSRT [KRAS_K117N] |  |  | 32 | 0 |
| PVTSLSSASTGDTTP | 0 | 0 |  |  |
| PVTSLSSASTGDTTP [MUC4-P4 [WT]] |  |  | 17 | 0 |
| PVTSLSSVSTGDTTP | 0 | 0 |  |  |
| PVTSPSSASTGHAIP | 0 | 0 |  |  |
| PVTSPSSASTGHAIP [MUC4-P10 [WT]] |  |  | 5 | 0 |
| PVTSPSSESTGHAIP | 0 | 0 |  |  |
| PVTSPSSESTGHAIP [MUC4-P9 [Mut]] |  |  | 0 | 0 |
| PVTSTSSASTGHATP | 0 | 0 |  |  |
| PVTSTSSASTGHATP [MUC4-P8 [WT]] |  |  | 0 | 2 |
| PVTSTSSVSTGHATP | 0 | 0 |  |  |
| PVTSTSSVSTGHATP [MUC4-P7 [Mut][WT]] |  |  | 0 | 0 |
| SVSTMDALRGLLPVL | 0 | 0 |  |  |

| Sequence | IFN-γ production, TIL (TIL) | IFN-γ production, PBMCs (PBMCs) | Pancreatic TIL D1599 IFN-y (TIL) [pg/mL] | Pancreatic TILD1599 IL 17 (TIL) [pg/mL] |
| --- | --- | --- | --- | --- |
| SVSTMDALRGLLPVL [Mesothelin MPF-17] |  |  | 0 | 0 |
| TLGEFLKLDRERAKN | 0 | 0 |  |  |
| TLGEFLKLDRERAKN [Survivin (97-111)] |  |  | 0 | 0 |
| TPLPVTDASSASTGH [MUC4-P1 [Mut][WT]] |  |  | 0 | 3 |
| TPLPVTDNSSASTGD [MUC4-P11 [Mut]] |  |  | 19 | 0 |
| TPLPVTDTSSASTGD [MUC4-P12 [WT]] |  |  | 34 | 0 |
| TPLPVTDTSSASTGH [MUC4-P2 [WT]] |  |  | 0 | 1 |
| TTPLPVTIPSSASSG [MUC4-P5 [Mut][WT]] |  |  | 12 | 0 |
| TTPLPVTSPSSASSG [MUC4-P6 [WT]] |  |  | 0 | 0 |
| VTDASSASTGH [MUC4-P2_fitted for HLA-A*01:01] |  |  | 0 | 14 |
| VTDTSSASTGH [MUC4-P1_fitted for HLA-A*01:01] |  |  | 0 | 24 |
| WAVRPQDLDTCDPRQ [Mesothelin GPI P13] |  |  | 0 | 0 |
| YEQLDVLKHKLDELY [Mesothelin GPI P5] |  |  | 0 | 0 |
| YKLVVVGAAGVGKSALT [Kras_P7 (G12A)] |  |  | 0 | 65 |
| YKLVVVGACGVGKSALT [Kras_P6 (G12C)] |  |  | 0 | 0 |
| YKLVVVGADGVGKSALT [Kras_P3 (G12D)] |  |  | 0 | 0 |
| YKLVVVGAGGVGKSALT [Kras_P1 (G12 WT)] |  |  | 0 | 37 |
| YKLVVVGARGVGKSALT [Kras_P4 (G12R)] |  |  | 0 | 0 |
| YKLVVVGASGVGKSALT [Kras_P5 (G12S)] |  |  | 14 | 0 |
| YKLVVVGAVGVGKSALT [Kras_P2 (G12V)] |  |  | 0 | 2 |
